Experimental data as given in patent US20160222014A1, “COMPOUNDS FOR REGULATING FAK AND/OR SRC PATHWAYS” (ASANA BIOSCIENCES, LLC, priority 2013, published 2016).
Read-outs that look alike come from different tables or passages of the source.

Legend:
recombinant human FAK1 = target: T1, recombinant human FAK1 (Homo sapiens, UniProt Q05397); test: FAK1 HTRF assay; type: biochemical
T1 construct: fused on or other part: N-terminal 6xHis tag
Method in brief: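 IC50 values derive from HTRF % inhibition (ratio 665/620 nm, Eu–anti-phosphotyrosine 0.1 nM, SA-APC 12 nM). The kinase step ran 45 min at room temperature, pairing 10 nM His-FAK1(692–end) from baculovirus with 0.5 μM gastrin Tyr87 biotin-peptide and a reagent at 10 μM final, pH 7.4. Compound dilutions began at 10 μM.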

[1] = target: T2, FAK phosphorylated at Y397 in HEK-FAK cell line overexpressing human FL FAK protein (Homo sapiens, UniProt Q05397); test: Cell based assay, Phospho-FAK ELISA; settings: HEK stb
T2 construct: expressed in transfected cells
Description: D. Cell Based Assay-Phospho-FAK ELISA
The DuoSet IC ELISA (R&D systems—Cat no. DYC4528-5) provided the basic components required for the development of sandwich ELISAs to measure Focal Adhesion Kinase 1 (FAK) phosphorylated at Y397 in cell lysates. An immobilized capture antibody specific for FAK, also known as PTK2, binds both phosphorylated and unphosphorylated protein. After washing away unbound material, a biotinylated detection antibody specific for FAK phosphorylated at Y397 was used to detect only phosphorylated protein, utilizing a standard Streptavidin-HRP format. The cell line used for the assay was a stable HEK-FAK cell line overexpressing human FL FAK protein, which was generated as follows.
HEK293 cells (ATCC® CRL-1573™, 10801 University Boulevard, Manassas, Va. 20110 USA) were seeded in four 100 mm petri dishes at a seeding density of 1.5×10^6 cells per plate and incubated overnight at 37° C. in a 5% CO2 incubator. The transfection mix was prepared as follows. (A) 10 μg DNA (pCDNA4 V5/HisA vector containing Zeocin as mammalian selection marker, procured from Invitrogen) with the full length human FAK gene represented by the nucleotide sequence provided in NCBI Reference Sequence: NM_153831.3, SEQ ID NO: 1:
was added to 1.5 mL Opti-MEM® (reduced serum media is a modification of Eagle's Minimum Essential Media, buffered with HEPES and sodium bicarbonate and supplemented with hypoxanthine, thymidine, sodium pyruvate, L-glutamine, trace elements and growth factors commercially available from Invitrogen) and incubated at room temperature for 5 minutes. (B) 30 μL Lipofectamine™ Transfection reagent (Life Technologies) was added to 1.5 mL Opti-MEM® and incubated at room temperature for 5 minutes. Following this, (a) and (b) were mixed and incubated at room temperature for 20 minutes. Media was removed from cells and washed with 1× phosphate buffered saline (PBS) and the transfection mix prepared above was mixed with 3 mL of Opti-MEM®, added to the cells and incubated at 37° C. Four hours later, 6 mL of 20% Dulbecco's Modified Eagle Medium (DMEM) was added to the plates and incubated at 37° C. in a 5% CO2 incubator. Approximately 72 hours after transfection, cells were subcultured at various dilutions with fresh medium containing 0.8 mg/mL Zeocin™ (Life Technologies). Cells were replenished with selective medium every 3-4 days until cell foci were identified in the FAK transfected cells and most of the cells died in the control plates. Cells from these foci were grown in the presence of selective media and the expression of FAK was confirmed by Western Blotting. Over expression of FAK in the stably-transfected cells was quantified in the cell-based ELISA assay described below by determining the signal window, with a signal window of 2 or above considered to be robust). The HEK-FAK stable cell line thus was maintained in 0.8 mg/mL Zeocin™ (Life Technologies) and used in cell-based ELISA to assess autophosphorylation of FAK.
(i) Materials • 1. Phospho-FAK (Y397)-Capture Antibody • 2. Phospho-FAK (Y397)-Detection Antibody • 3. Streptavidin-HRP • 4. Cells used for the assay-HEK over expressing human FL FAK protein
(ii) Solutions • PBS—137 mM NaCl, 2.7 mM KCl, 8.1 mM Na2HPO4, 1.5 mM KH2PO4, pH 7.2-7.4, 0.2 μm filtered. • Wash Buffer—0.05% Tween20™ in PBS, pH 7.2-7.4 • Block Buffer—1% BSA, 0.05% NaN3, in PBS, pH 7.2-7.4. • IC Diluent #1-1% BSA in PBS, pH 7.2-7.4, 0.2 μm filtered. • IC Diluent #8-1 mM EDTA, 0.5% Triton™ X-100, 5 mM NaF in PBS, pH 7.2-7.4. IC Diluent #8 was also the base buffer for IC Diluent #3, IC Diluent #7, and Lysis. • Buffer #6. […]

AURKB (Aurora B) enzyme = target: T3, AURKB (Aurora B) enzyme (Homo sapiens, UniProt Q96GD4); test: Aurora B HTRF assay; type: biochemical; settings: read-out: AuroraB IC50
T3 construct: purchased Invitrogen PVR 130
Method in brief: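 Enzyme (5 nM final) and ULight-labelled PLK Ser137 peptide (50 nM) reacted 1 h at room temperature; a 30 μM final component was also present. Detection used EDTA-containing buffer with europium anti-phospho-PLK(Ser137) antibody at 2 nM, 1 h, then time-resolved FRET readout.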

Recombinant Src enzyme = target: T4, Recombinant Src enzyme (Homo sapiens, UniProt P12931); test: Src HTRF assay; type: biochemical
T4 construct: purchased Millipore 14-326; host or cells: Sf21 insect cells
Method in brief: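 Run as for the FAK HTRF assay (same buffer, supplements, compound preparation and procedure), with dasatinib included. Reaction contained 0.5 μM biotin-tagged Tyk2 synthetic peptide, 5 nM Src made in Sf21 cells, and a pH7.4-buffer-prepared component at 10 μM final.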

[2] = read-out: pFAK EC50 (μM) HEK stb

T2 sequence (Q05397 whole entry): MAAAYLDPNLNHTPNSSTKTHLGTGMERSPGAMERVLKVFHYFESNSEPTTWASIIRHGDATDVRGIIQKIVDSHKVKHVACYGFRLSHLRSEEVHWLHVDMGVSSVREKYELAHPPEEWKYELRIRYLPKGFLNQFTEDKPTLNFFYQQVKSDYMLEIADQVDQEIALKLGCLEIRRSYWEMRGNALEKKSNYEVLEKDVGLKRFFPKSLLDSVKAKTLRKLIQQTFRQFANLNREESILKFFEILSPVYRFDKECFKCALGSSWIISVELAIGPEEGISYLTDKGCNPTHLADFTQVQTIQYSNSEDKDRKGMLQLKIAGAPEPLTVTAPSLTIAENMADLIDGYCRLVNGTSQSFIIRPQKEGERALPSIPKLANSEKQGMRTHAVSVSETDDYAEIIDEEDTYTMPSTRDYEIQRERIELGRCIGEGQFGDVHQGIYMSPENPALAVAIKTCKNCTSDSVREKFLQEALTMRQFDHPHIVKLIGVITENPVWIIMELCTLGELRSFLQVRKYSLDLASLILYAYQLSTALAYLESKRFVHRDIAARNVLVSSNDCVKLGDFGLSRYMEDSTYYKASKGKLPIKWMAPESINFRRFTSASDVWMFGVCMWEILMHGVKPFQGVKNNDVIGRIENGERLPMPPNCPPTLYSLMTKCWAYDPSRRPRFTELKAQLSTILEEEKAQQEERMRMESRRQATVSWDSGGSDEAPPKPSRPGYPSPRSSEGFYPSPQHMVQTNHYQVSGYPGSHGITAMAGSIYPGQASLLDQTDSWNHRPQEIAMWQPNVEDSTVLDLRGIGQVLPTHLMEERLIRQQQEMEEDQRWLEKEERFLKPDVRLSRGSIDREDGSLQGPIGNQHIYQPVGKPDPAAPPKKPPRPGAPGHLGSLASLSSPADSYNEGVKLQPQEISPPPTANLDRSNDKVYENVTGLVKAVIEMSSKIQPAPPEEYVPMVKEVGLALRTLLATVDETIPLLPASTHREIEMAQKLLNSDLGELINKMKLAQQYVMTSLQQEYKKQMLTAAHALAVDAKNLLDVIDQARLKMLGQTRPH
T4 sequence (P12931 whole entry): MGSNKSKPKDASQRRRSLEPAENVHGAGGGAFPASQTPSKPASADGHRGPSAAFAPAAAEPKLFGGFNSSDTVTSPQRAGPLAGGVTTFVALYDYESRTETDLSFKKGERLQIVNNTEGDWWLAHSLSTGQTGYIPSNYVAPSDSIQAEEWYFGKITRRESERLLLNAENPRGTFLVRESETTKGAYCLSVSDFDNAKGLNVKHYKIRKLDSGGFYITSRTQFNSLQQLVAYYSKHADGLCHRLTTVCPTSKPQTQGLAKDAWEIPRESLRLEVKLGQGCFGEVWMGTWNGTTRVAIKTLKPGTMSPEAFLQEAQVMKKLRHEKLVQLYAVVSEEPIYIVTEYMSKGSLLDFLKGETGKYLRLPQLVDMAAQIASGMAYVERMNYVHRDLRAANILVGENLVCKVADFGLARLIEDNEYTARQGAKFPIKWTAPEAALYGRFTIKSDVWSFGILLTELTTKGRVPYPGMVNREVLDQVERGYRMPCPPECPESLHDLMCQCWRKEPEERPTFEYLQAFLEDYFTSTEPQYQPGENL
T1 sequence (Q05397 422-680 limits assumed): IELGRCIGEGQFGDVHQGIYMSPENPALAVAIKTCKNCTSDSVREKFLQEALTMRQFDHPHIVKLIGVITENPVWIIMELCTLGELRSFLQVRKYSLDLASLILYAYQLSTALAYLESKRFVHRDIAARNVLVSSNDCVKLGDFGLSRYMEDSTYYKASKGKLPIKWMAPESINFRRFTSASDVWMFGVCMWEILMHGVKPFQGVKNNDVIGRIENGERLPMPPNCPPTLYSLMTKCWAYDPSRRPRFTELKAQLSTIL
T3 sequence (Q96GD4 whole entry): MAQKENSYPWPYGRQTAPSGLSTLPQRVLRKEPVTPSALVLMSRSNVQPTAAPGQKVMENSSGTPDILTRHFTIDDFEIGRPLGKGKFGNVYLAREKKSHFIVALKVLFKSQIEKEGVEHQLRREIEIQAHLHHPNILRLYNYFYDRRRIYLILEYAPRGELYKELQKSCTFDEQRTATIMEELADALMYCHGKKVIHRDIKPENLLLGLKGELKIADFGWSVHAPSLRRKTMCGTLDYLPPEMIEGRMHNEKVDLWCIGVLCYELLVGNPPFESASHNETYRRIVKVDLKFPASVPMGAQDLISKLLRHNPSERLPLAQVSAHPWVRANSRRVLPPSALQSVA

SMILES	IC50 (recombinant human FAK1) [nM]	EC50 [1, 2] [µM]	IC50 (AURKB (Aurora B) enzyme) [nM]	IC50 (Recombinant Src enzyme) [nM]	EC50 ([1]; read-out: pFAK EC50 HEK stb) [µM]
CN(c1ncccc1Cn1ccc2cnc(Nc3ccc4c(c3)CCC(=O)N4)cc21)S(C)(=O)=O [Example 31]	< 20	> 1	–	–	–
CN(c1ncccc1Cn1ccc2cnc(Nc3ccc4[nH]c(=O)[nH]c4c3)nc21)S(C)(=O)=O [Example 77]	< 20	> 1	–	–	–
COc1cc(Nc2ncc3ccn(S(=O)(=O)c4cccc5cccnc45)c3n2)ccc1N1CCNCC1 [Example 198]	< 20	< 0.02	< 20	–	–
CN(c1ccccc1Cn1ncc2cnc(Nc3ccc4c(c3)CCC(=O)N4)cc21)S(C)(=O)=O [Example 225]	< 20	> 1	–	–	–
Cc1cc(Nc2ncc3ccn(S(=O)(=O)c4cccs4)c3n2)ccc1N1CCNCC1 [Example 229]	–	> 1	–	< 20	–
C[C@H]1CN(c2ccc(Nc3ncc4ccn(S(=O)(=O)c5ccccc5C#N)c4n3)cc2)CCN1 [Example 242]	–	> 1	< 20	–	–
O=S(=O)(c1cccc2cccnc12)n1ccc2cnc(Nc3ccc(CN4CCCC(CO)C4)cc3)nc21 (centres unmarked) [Example 247]	< 20	< 0.02	< 20	–	–
COc1ccccc1S(=O)(=O)N1CCc2cnc(Nc3ccc(N4CCNCC4)cc3)nc21 [Example 344]	–	> 1	< 20	–	–
Cn1cc(Nc2cc3c(cn2)cnn3S(=O)(=O)c2cccc3cccnc23)cn1 [Example 349]	–	> 1	–	> 1000	–
O=S(=O)(c1cccc2cccnc12)n1ccc2cnc(Nc3cnn(C4CCNCC4)c3)nc21 [Example 355]	–	> 1	< 20	–	–
COc1cc(N2CCNCC2)ccc1Nc1ncc2ccn(S(=O)(=O)c3cccc4ccc(C)nc34)c2n1 [Example 365]	–	> 1	–	> 1000	–
CN(c1ncccc1Cn1ccc2cnc(Nc3ccc(N4CC5CC4CN5)cc3)cc21)S(C)(=O)=O (centres unmarked) [Example 371]	–	> 1	–	> 1000	–
COc1cc(Nc2ncc3ccn(S(=O)(=O)c4cccc5cccnc45)c3n2)cc(OC)c1OC [Example 392]	–	> 1	< 20	–	–
CN(c1ncccc1Cn1ccc2cnc(Nc3ccc(N4CCOCC4)cc3)cc21)S(C)(=O)=O [Example 397]	–	> 1	–	> 1000	–
N#Cc1ccccc1S(=O)(=O)n1ncc2cnc(Nc3ccc(N4CCN(CCO)CC4)cc3)cc21 [Example 419]	–	> 1	–	> 1000	–
COc1cc(Nc2ncc3ccn(Cc4ccccc4N(C)S(C)(=O)=O)c3n2)ccc1N1CCN(CCO)CC1 [Example 421]	< 20	> 1	–	–	–
CN(c1ncccc1CN1c2nc(Nc3ccc(N4CCNCC4)cc3)ncc2C(C)(C)C1O)S(C)(=O)=O (centres unmarked) [Example 455]	–	> 1	–	> 1000	–

SMILES	IC50 (recombinant human FAK1) [nM]	EC50 [1, 2] [µM]	IC50 (AURKB (Aurora B) enzyme) [nM]	IC50 (Recombinant Src enzyme) [nM]	EC50 ([1]; read-out: pFAK EC50 HEK stb) [µM]
C[C@@H]1CNCCN1c1ccc(Nc2cc3c(ccn3S(=O)(=O)c3ccccc3C#N)cn2)cc1 [Example 479]	–	> 1	< 20	–	–
CN1CCN(c2ccc(Nc3cc4c(ccn4S(=O)(=O)c4ccccc4C#N)cn3)cc2)CC1 [Example 506]	< 20	> 1	–	–	–
COc1cc(C(=O)N2CCOCC2)c(F)cc1Nc1ncc2ccn(Cc3ccccc3N(C)S(C)(=O)=O)c2n1 [Example 512]	–	> 1	–	> 1000	–
CS(=O)(=O)Nc1ccccc1Cn1ccc2cnc(Nc3ccc(N4CCNCC4)cc3)nc21 [Example 519]	–	> 1	–	< 20	–
CN(c1ccccc1Cn1ccc2cnc(Nc3ccc4c(c3)CC3CNCCN43)nc21)S(C)(=O)=O (centres unmarked) [Example 526]	< 20	> 1	–	–	–
CC1(C)CN(c2ccccn2)c2nc(Nc3ccc(N4CCNCC4)cc3)ncc21 [Example 534]	–	> 1	> 1000	–	–
CN(c1ccccc1Cn1ccc2cnc(Nc3ccc(N4CCNCC4=O)cc3)nc21)S(C)(=O)=O [Example 550]	< 20	> 1	< 20	–	–
CN(c1ccccc1Cn1ccc2cnc(Nc3ccc(-n4ccccc4=O)cc3)nc21)S(C)(=O)=O [Example 576]	–	> 1	–	> 1000	–
CN(c1ncccc1Cn1ccc2cnc(Nc3ccc4c(c3)CC(=O)N4CCO)nc21)S(C)(=O)=O [Example 615]	–	> 1	< 20	–	–
CN(C)C1CN(c2ccc(Nc3cc4c(ccn4S(=O)(=O)c4ccccc4C#N)cn3)cc2)C1 [Example 623]	–	> 1	–	> 1000	–
CC1(C)CN(S(=O)(=O)c2cccc3cccnc23)c2nc(Nc3ccc(N4CCN(CC(=O)O)CC4)cc3)ncc21 [Example 699]	–	> 1	–	> 1000	–
COc1cccc(N(C)S(C)(=O)=O)c1Cn1ccc2cnc(Nc3ccc(N4CCN[C@@H](C)C4)cc3)nc21 [Example 701]	–	> 1	–	> 1000	–
COc1ccc(N(C)S(C)(=O)=O)c(Cn2ccc3cnc(Nc4ccc(N5CCC(N(C)C)CC5)cc4)nc32)c1 [Example 706]	< 20	< 0.02	–	–	–
CNC1CCN(c2ccc(Nc3ncc4c(n3)N(S(=O)(=O)c3cccc5ccccc35)CC4(C)C)cc2)CC1 [Example 707]	–	> 1	–	> 1000	–
CN(c1ncccc1Cn1ccc2cnc(Nc3ccc(N4CCCC(N)C4)cc3)nc21)S(C)(=O)=O (centres unmarked) [Example 776]	–	> 1	–	–	–
Cc1cc(Nc2ncc3ccn(Cc4cccnc4N(C)S(C)(=O)=O)c3n2)ccc1C1CCN(CCO)CC1 [Example 887]	–	–	–	–	> 1
CNC(=O)c1ccc(Nc2ncc3ccn(Cc4cccnc4N(C)S(C)(=O)=O)c3n2)cc1 [Example 982]	–	–	–	–	> 1
